Results taken from ChEMBL document CHEMBL3714717, “Family of PFKFB3 inhibitors with anti-neoplastic activities” (2013).
pIC50, pKi: −log10 of the molar value. Calls of active or inactive are those of the source. No cut-off for these calls is given here.

Legend:
HL-60 [1] = assay: Growth inhibition of human HL60 cells incubated for 48 hrs by trypan blue dye exclusion assay; assay type: functional, cell-based
K562 = assay: Growth inhibition of human K562 cells incubated for 48 hrs by trypan blue dye exclusion assay; assay type: functional, cell-based
Homo sapiens = species on record: Homo sapiens; assay: Growth inhibition of human CRL11174 cells incubated for 48 hrs by trypan blue dye exclusion assay; assay type: functional
A549 = assay: Growth inhibition of human A549 cells incubated for 48 hrs by trypan blue dye exclusion assay; assay type: functional, cell-based
MDA-MB-231 [2] = assay: Growth inhibition of human MDA-MB-231 cells incubated for 48 hrs by trypan blue dye exclusion assay; assay type: functional, cell-based
Jurkat [3] = assay: Inhibition of cell proliferation of human Jurkat cells incubated for 72 hrs by Alamar blue assay; assay type: functional, cell-based
U-87MG ATCC = assay: Antitumor activity against human U87MG cells implanted in C57Bc16 mouse assessed as inhibition of tumor size at 20 mg/kg, ip measured during 7 to 25 days after tumor inoculation; assay type: functional, organism-based
CT26 = assay: Antitumor activity against mouse CT26 cells implanted in C57Bc16 mouse assessed as inhibition of tumor size at 20 or 23 mg/kg, ip measured during 7 to 22 days after tumor inoculation; assay type: functional, organism-based
[4] = molecular target: T1, 6-phosphofructo-2-kinase/fructose-2,6-bisphosphatase 3 (Homo sapiens, UniProt Q16875); details: 150 uM
Description: Inhibition of recombinant PFKFB3 (unknown origin) assessed as reduction in enzyme kinetic rate at 150 uM

[5] = Solubility in Cremophore:EToH:saline solution in normal conditions using Amber vials after 4 hrs by HPLC method (reference value: 1 mg/ml at 0 hrs); assay type: physicochemical
Lewis lung carcinoma = assay: Antitumor activity against mouse LLC cells implanted in C57Bc16 mouse assessed as inhibition of tumor size at 25 mg/kg, ip dosed on days 1,2 and 3 and 35 mg/kg, ip on days Antitumor activity against mouse LLC cells implanted in C57Bc16 mouse assessed as inhibition of tumor size at 25 mg/kg, ip dosed on days 7,8,9,13,14 and 15; assay type: functional, organism-based
[6] = Solubility in Cremophore:EToH:saline solution in normal conditions using Amber vials after 2 hrs by HPLC method (reference value: 1 mg/ml at 0 hrs); assay type: physicochemical
[7] = Solubility in Cremophore:EToH:saline solution in normal conditions using Amber vials after 8 hrs by HPLC method (reference value: 1 mg/ml at 0 hrs); assay type: physicochemical
[8] = Potency index, ratio of IC50 for 3BrPA to IC50 for test compound for growth inhibition of human NHBE cells immortalized with human telomerase and large-T antigen and transformed with mutated Ras protein at 1 uM incubated for 48 to 72 hrs by trypan blue dye exclusion assay; assay type: functional
[9] = Potency index, ratio of IC50 for 2-DG to IC50 for test compound for growth inhibition of human NHBE cells immortalized with human telomerase and large-T antigen and transformed with mutated Ras protein at 1 uM incubated for 48 to 72 hrs by trypan blue dye exclusion assay; assay type: functional
Jurkat [10] = assay: Suppression of glycolytic flux into lactate in human Jurkat cells expressing inducible FLAG-tagged PFKFB at 10 uM after 36 hrs by NMR spectroscopy; assay type: functional, cell-based
Jurkat [11] = assay: Potency index, ratio of IC50 for growth inhibition of PFKFB3+/+ht/LT/Ras human Jurkat cells to IC50 for growth inhibition of PFKFB3+/-ht/LT/Ras human Jurkat cells; assay type: functional
Jurkat [12] = assay: […] cell cycle arrest in human Jurkat cells expressing inducible FLAG-tagged PFKFB assessed as accumulation at G2/M phase by propidium iodide staining based flow cytometry; assay type: functional
NHBE [13] = assay: Growth inhibition of human NHBE cells immortalized with human telomerase and large-T antigen and transformed with mutated Ras protein at 10 uM incubated for 48 to 72 hrs by trypan blue dye exclusion assay; assay type: functional, cell-based
[14] = Growth inhibition of human NHBE cells at 33 uM incubated for 48 to 72 hrs by trypan blue dye exclusion assay; assay type: cell-based
Jurkat [15] = assay: Reduction in NADH level in human Jurkat cells expressing inducible FLAG-tagged PFKFB at 10 uM after 16 hrs; assay type: functional, cell-based
Jurkat [16] = assay: Reduction in Fru-2,6-BP production in human Jurkat cells expressing inducible FLAG-tagged PFKFB at 10 uM measured within 4 hrs; assay type: functional, cell-based
[17] = Antitumor activity against human HL60 cells xenografted in Balb/c mouse assessed as tumor growth inhibition at 0.07 mg/g, ip dosed as 2 sequential daily injections followed by 7 consecutive days of without treatment; assay type: functional, HL-60
[18] = molecular target: T1, 6-phosphofructo-2-kinase/fructose-2,6-bisphosphatase 3; assay: Mixed type inhibition of human PFKFB3 expressed in Escherichia coli BL21 (DE3) assessed as reduction in NADH consumption using fructose-6-phosphate incubated for 15 mins by spectrophotometry based pyruvate kinase and LDH enzyme coupled kinetic assay
MDA-MB-231 [19] = assay: Antitumor activity against human MDA-MB-231 cells xenografted in Balb/c mouse assessed as tumor growth inhibition at 0.07 mg/g, ip dosed as cyclical regimen of 3 daily injections followed by 3 days of without treatment; assay type: functional
Jurkat [20] = assay: Reduction in 2-deoxy-glucose uptake in human Jurkat cells expressing inducible FLAG-tagged PFKFB at 10 uM measured within 4 hrs using [14C]-2-deoxy-glucose by scintillation counting method; assay type: functional, cell-based
Mus musculus [21] = assay: Reduction in [18F]-2-DG uptake in cardiac tissue of C57B1/6 mouse transplanted with mouse LLC cells at 0.07 mg/g, ip after 30 mins post dose by micro-PET method; assay type: functional, organism-based
Jurkat [22] = assay: Reduction in lactate secretion in human Jurkat cells expressing inducible FLAG-tagged PFKFB at 10 uM after 8 hrs by lactate oxidase based colorimetric assay; assay type: functional, cell-based
Mus musculus [23] = assay: Reduction in F2,6BP production excised tumor of C57B1/6 mouse transplanted with mouse LLC cells at 0.07 mg/g, ip after 4 hrs post dose; assay type: functional, organism-based
Jurkat [24] = assay: Inhibition of cell proliferation of human Jurkat cells expressing inducible FLAG-tagged PFKFB at 10 uM incubated for 36 hrs by trypan blue dye exclusion assay; assay type: functional, cell-based
Jurkat [25] = assay: Reduction in ATP level in human Jurkat cells expressing inducible FLAG-tagged PFKFB at 10 uM after 24 hrs; assay type: functional, cell-based
Jurkat [26] = assay: Suppression of glycolytic flux into alanine in human Jurkat cells expressing inducible FLAG-tagged PFKFB at 10 uM after 36 hrs by NMR spectroscopy; assay type: functional, cell-based
NHBE [27] = assay: Growth inhibition of human NHBE cells immortalized with human telomerase and large-T antigen and transformed with mutated Ras protein at 1 uM incubated for 48 to 72 hrs by trypan blue dye exclusion assay; assay type: functional, cell-based
HL-60 [28] = assay: Antitumor activity against human HL60 cells xenografted in Balb/c mouse assessed as tumor growth inhibition at 0.07 mg/g, ip dosed as 2 sequential daily injections followed by 7 consecutive days of without treatment and subsequent second dosing and measured on day9; assay type: functional, organism-based
Jurkat [29] = assay: Reduction in NAD+ level in human Jurkat cells expressing inducible FLAG-tagged PFKFB at 10 uM after 24 hrs; assay type: functional, cell-based
Mus musculus [30] = assay: Reduction in [18F]-2-DG uptake in tumor of C57B1/6 mouse transplanted with mouse LLC cells at 0.07 mg/g, ip after 30 mins post dose by micro-PET method; assay type: functional, organism-based
Jurkat [31] = assay: Inhibition of cell proliferation of human Jurkat cells expressing inducible FLAG-tagged PFKFB incubated for 48 hrs by trypan blue dye exclusion assay; assay type: functional, cell-based

T1 sequence (Q16875 whole entry): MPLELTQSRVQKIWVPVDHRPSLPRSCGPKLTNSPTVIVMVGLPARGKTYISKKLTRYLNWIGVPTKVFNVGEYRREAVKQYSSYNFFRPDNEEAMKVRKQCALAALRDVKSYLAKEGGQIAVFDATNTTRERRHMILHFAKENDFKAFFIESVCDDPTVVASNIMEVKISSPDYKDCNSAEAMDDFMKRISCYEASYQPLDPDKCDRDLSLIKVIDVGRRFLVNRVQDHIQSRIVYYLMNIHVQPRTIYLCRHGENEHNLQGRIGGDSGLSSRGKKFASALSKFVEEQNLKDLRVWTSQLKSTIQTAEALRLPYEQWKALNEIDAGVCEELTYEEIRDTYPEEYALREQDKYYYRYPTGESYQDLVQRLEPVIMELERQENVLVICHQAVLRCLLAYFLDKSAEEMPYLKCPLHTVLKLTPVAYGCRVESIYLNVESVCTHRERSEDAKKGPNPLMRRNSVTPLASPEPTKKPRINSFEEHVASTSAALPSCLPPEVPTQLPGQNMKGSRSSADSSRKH

## O=C(/C=C/c1ccccc1Cl)c1cccnc1
HL-60 [1]
  growth inhibition (GI): Active
K562
  growth inhibition (GI): Active
Homo sapiens
  growth inhibition (GI): Active
A549
  growth inhibition (GI): Active
MDA-MB-231 [2]
  growth inhibition (GI): Active

## CC(=O)Nc1ccc(/C=C/C(=O)c2ccncc2)cc1
HL-60 [1]
  growth inhibition (GI): Active
K562
  growth inhibition (GI): Active
Homo sapiens
  growth inhibition (GI): Active
A549
  growth inhibition (GI): Active
MDA-MB-231 [2]
  growth inhibition (GI): Active

## O=C(/C=C/c1cnc2ccccc2c1)c1ccncc1
Jurkat [3]
  pIC50: < 5.40

## Cc1cccc2ccc(/C=C/C(=O)c3ccncc3)nc12
U-87MG ATCC
  inhibition: Active
CT26
  inhibition: Active

## O=C(/C=C/c1ccc(Cl)cc1)c1cccnc1
HL-60 [1]
  growth inhibition (GI): Dose-dependent effect
K562
  growth inhibition (GI): Dose-dependent effect
Homo sapiens
  growth inhibition (GI): Active
A549
  growth inhibition (GI): Active
MDA-MB-231 [2]
  growth inhibition (GI): Active

## O=C(/C=C/c1ccc2ccccc2n1)c1cccnc1
HL-60 [1]
  growth inhibition (GI): Active
K562
  growth inhibition (GI): Active
Homo sapiens
  growth inhibition (GI): Active
[4]
  inhibition: > 80%
A549
  growth inhibition (GI): Active
MDA-MB-231 [2]
  growth inhibition (GI): Active

## Cl.O=C(/C=C/c1ccc2cccc(O)c2n1)c1ccncc1
[5]
  solubility at 4 h: 1000 µg/mL
Lewis lung carcinoma
  inhibition: Active
[6]
  solubility at 2 h: 1000 µg/mL
[7]
  solubility at 8 h: 1000 µg/mL

## O=C(/C=C/c1ccccc1Cl)c1ccccn1
HL-60 [1]
  growth inhibition (GI): Active
K562
  growth inhibition (GI): Active
Homo sapiens
  growth inhibition (GI): Active
A549
  growth inhibition (GI): Active
MDA-MB-231 [2]
  growth inhibition (GI): Active

## O=C(/C=C/c1cccnc1)c1ccncc1
[8]
  Ratio IC50: 10
[9]
  Ratio IC50: 10
Jurkat [10]
  Activity: Active
Jurkat [11]
  Ratio IC50: 2
Jurkat [12]
  Activity: Active
NHBE [13]
  growth inhibition (GI): Active
[14]
  Activity: Non-toxic
Jurkat [15]
  Activity: Active
Jurkat [16]
  Activity: Active
[17]
  TGI: >75%
[18]
  pKi: 4.60
MDA-MB-231 [19]
  Imax: 64%
Jurkat [20]
  Activity: Active
Mus musculus [21]
  Activity: Active
Jurkat [22]
  Activity: Active
Mus musculus [23]
  Activity: Active
Jurkat [24]
  inhibition: Active
Jurkat [25]
  Activity: Active
Jurkat [26]
  Activity: inactive
NHBE [27]
  growth inhibition (GI): Active
HL-60 [28]
  TGI: Active
Jurkat [29]
  Activity: Active
Mus musculus [30]
  Activity: Active
Jurkat [31]
  inhibition: Dose-dependent effect

## O=C(/C=C/c1cccc2ccccc12)c1ccncc1
HL-60 [1]
  growth inhibition (GI): Active
K562
  growth inhibition (GI): Active
Homo sapiens
  growth inhibition (GI): Active
A549
  growth inhibition (GI): Active
MDA-MB-231 [2]
  growth inhibition (GI): Active
